{
  "source": "patent US6488962B1",
  "about": "“Tablet shapes to enhance gastric retention of swellable controlled-release oral dosage forms” (DepoMed, Inc., priority 2000, dated 2002)",
  "origin": "cited, not measured here",
  "details": "oral doses administered with or following a meal",
  "data": [
    {"smiles": "Cc1c(O)cccc1C(=O)N[C@@H](CSc1ccccc1)[C@H](O)CN1C[C@H]2CCCC[C@H]2C[C@H]1C(=O)NC(C)(C)C", "note": "[nelfinavir]", "values": [
      {"measurement": "area under the plasma concentration-time curve, with or following a meal versus without", "result": "two to three times greater"},
      {"measurement": "peak plasma concentration, with or following a meal versus without", "result": "two to three times greater"}
    ]}
  ]
}
